± gives the expanded uncertainty stated by the source.
Settings: 298.15 K; 101.33 kPa; Liquid; Vibrating tube method

mass density [kg/m3]	Compound
1006.75 ± 1.3	CCCC[N+]1(C)CCCC1.N#CC(=C=[N-])C#N [1-butyl-1-methylpyrrolidinium tricyanomethanide]
873.53 ± 1	c1ccccc1 [benzene]
826.38 ± 1	CCCCCCCCCCO [decan-1-ol]
862.97 ± 1	CCc1ccccc1 [ethylbenzene]
679.55 ± 1	CCCCCCC [heptane]
814.94 ± 1	CCCCCCO [hexan-1-ol]
823.27 ± 1	CCCCCCCCO [octan-1-ol]
1058.48 ± 1	c1ccsc1 [thiophene]

Compound	mass density [kg/m3]
CCCC[N+]1(C)CCOCC1.N#C[C-](C#N)C#N [4-butyl-4-methylmorpholinium tricyanomethanide]	1067.06 ± 1.3
Cc1ccccc1 [toluene]	863.67 ± 1
